# Laboratory results from patent US7998949B2, “Bicyclic heterocycles, drugs containing said compounds, use thereof, and method for production thereof” (Boehringer Ingelheim International GmbH, priority 2007, dated 2011).
# pIC50: −log10 of the molar value.
# Target: T1, human EGF-R (Homo sapiens, UniProt P00533)
# T1 construct: expressed in transfected cells
# Experiment: Inhibition of the EGFR-dependent proliferation (EGF-stimulated cell line expressing human EGF-R, Cell Titer 96 assay)
# Assay type: cell-based
# Conditions: murine haematopoietic cell line expressing functional human EGF-R; 20 ng/ml human EGF; 48 hours at 37° C.
# Method: A murine haematopoietic cell line is genetically modified so as to express functional human EGF-R. The proliferation of this cell line can therefore be stimulated by EGF.
# The test is carried out as follows: • The cells are cultivated in RPMI/1640 medium. The proliferation is stimulated with 20 ng/ml of human EGF (Promega). To investigate the inhibitory activity of the compounds according to the invention these compounds are dissolved in 100% dimethylsulphoxide (DMSO) and added to the cultures in various dilutions, the maximum DMSO concentration being 1%. The cultures are incubated for 48 hours at 37° C.
# In order to determine the inhibitory activity of the compounds according to the invention the relative cell number is measured in O.D. units using the Cell Titer 96™ AQueous Non-Radioactive Cell Proliferation Assay (Promega). The relative cell number is calculated as a percentage of the control and the concentration of active substance which inhibits the proliferation of the cells by 50% (IC50) is derived therefrom.
# T1 sequence (P00533 25-1210): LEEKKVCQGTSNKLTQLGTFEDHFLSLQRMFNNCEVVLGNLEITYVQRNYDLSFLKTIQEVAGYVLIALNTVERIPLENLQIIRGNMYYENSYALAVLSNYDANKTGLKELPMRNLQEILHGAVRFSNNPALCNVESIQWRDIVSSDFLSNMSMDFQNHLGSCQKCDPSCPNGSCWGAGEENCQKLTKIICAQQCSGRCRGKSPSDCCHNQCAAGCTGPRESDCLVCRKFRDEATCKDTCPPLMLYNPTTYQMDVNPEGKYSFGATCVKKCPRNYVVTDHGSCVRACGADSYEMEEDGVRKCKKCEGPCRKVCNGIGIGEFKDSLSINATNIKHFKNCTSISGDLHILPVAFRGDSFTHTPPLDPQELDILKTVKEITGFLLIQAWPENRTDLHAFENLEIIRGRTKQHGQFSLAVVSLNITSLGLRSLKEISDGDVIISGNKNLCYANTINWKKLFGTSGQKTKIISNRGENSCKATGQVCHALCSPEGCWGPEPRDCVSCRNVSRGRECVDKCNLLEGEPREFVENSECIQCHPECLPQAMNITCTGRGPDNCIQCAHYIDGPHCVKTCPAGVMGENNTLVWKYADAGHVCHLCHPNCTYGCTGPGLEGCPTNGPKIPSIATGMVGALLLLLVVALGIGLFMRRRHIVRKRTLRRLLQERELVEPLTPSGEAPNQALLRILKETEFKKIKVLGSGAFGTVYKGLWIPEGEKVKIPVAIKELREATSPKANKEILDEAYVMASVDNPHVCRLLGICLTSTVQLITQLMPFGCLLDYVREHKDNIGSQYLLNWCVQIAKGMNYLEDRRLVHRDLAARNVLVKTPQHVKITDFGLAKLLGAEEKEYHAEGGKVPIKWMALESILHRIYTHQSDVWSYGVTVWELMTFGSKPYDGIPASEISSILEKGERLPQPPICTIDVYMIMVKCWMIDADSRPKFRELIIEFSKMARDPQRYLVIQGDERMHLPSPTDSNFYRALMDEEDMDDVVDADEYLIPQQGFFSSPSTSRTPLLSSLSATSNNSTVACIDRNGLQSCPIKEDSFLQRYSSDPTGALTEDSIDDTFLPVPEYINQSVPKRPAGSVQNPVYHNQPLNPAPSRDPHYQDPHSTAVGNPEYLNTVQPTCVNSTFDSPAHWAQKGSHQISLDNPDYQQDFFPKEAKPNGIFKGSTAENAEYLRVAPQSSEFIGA
row,SMILES,pIC50
1,"COc1cc2ncnc(Nc3cccc(Cl)c3F)c2cc1O[C@H]1CC[C@H](N2CCNC(=O)C2)CC1 [1(3) (trans compound), 4-[(3-chloro-2-fluoro-phenyl)amino]-6-[trans-4-(3-oxo-piperazin-1-yl)-cyclohexyloxy]-7-methoxy-quinazoline]",9.00
2,"COc1cc2ncnc(Nc3cccc(Cl)c3F)c2cc1O[C@H]1CC[C@H](N2CC[C@@H](O)C2)CC1 [1(1) (trans compound), 4-[(3-chloro-2-fluoro-phenyl)amino]-6-[(R)-trans-4-(3-hydroxy-pyrrolidin-1-yl)-cyclohexyloxy]-7-methoxy-quinazoline]",9.00
3,COc1cc2ncnc(Nc3cccc(Cl)c3F)c2cc1O[C@H]1CC[C@H](N2CCN(C)C(=O)C2)CC1 [(36)],9.00
4,"COc1cc2ncnc(Nc3cccc(Cl)c3F)c2cc1O[C@H]1CC[C@H](N2CCOCC2)CC1 [1 (trans compound), 4-[(3-chloro-2-fluoro-phenyl)amino]-6-[trans-4-(morpholin-4-yl)-cyclohexyloxy]-7-methoxy-quinazoline]",9.00
5,COc1cc2ncnc(Nc3cccc(Cl)c3F)c2cc1O[C@H]1CC[C@H](N2CCC(C#N)CC2)CC1 [(44)],9.00
6,"COc1cc2ncnc(Nc3cccc(Cl)c3F)c2cc1O[C@H]1CC[C@H](N2CCC[C@H]2C(N)=O)CC1 [1(5) (trans compound), 4-[(3-chloro-2-fluoro-phenyl)amino]-6-{(S)-trans-4-[2-(aminocarbonyl)-pyrrolidin-1-yl]-cyclohexyloxy]-7-methoxy-quinazoline]",9.00
